According to patent publication US7495027B2, “3-aryl-4-hydroxyfuranone compounds and the human and animal health use thereof” (Wyeth, priority 2003, dated 2009):

Columns and labels:
[1] = system: larvae of blowfly, Lucilia sericata; experiment: whole plant or invertebrate; settings: dose rate of 20 ppm, Lucilia sericata larvae on treated filter paper with bovine serum; for % Mortality 24 h: assessed at 24 h; for % Mortality 48 h: assessed at 48 h
Experimental: Comparative Evaluation of the Efficacy of a 3-Aryl-4-hydroxyfuranone Compound Against Blowfly Larvae
In this evaluation, filter paper discs are treated with an acetone solution of test compound and allowed to dry. Bovine serum and newly emerged larvae of blowfly, Lucilia sericata, are added to the treated filter paper. Mortality is assessed at 24 h and 48 h. When more than one evaluation is performed, the data are averaged.

C. elegans = experiment: Efficacy against nematodes (C. elegans motility rating); design: key: 0: no effect; 7: reduced movement in 24 h; 8: dead in 24 h; 9: dead in 4 h; settings: observations at 4 h and 24 h postimmersion
Experimental: Evaluation of the Efficacy of a 3-Aryl-4-Hydroxyfuranone Against Nematodes
In this evaluation, cultures of C. elegans are maintained on E. coli lawns on Nematode Growth Agar at 20° C. New cultures are established twice a week. Nematodes for testing are rinsed from plates using M9 Buffer. […] One μL of this solution is added to each well of a 96 well plate. A mixture of C. elegans in M9 Buffer (100 μL) is added to each well, such that approximately 50 worms of mixed stages (L1, L2, L3, L4 and adults) are present in each well at a final concentration of 100 ppm, 150 ppm or […] of test compound. Concentration of test compound may be varied by gradient dilution of the stock DMSO solution. Observations are made under a dissecting microscope at 4 h and 24 h postimmersion. A rating is based on the motility of the larvae and adults, using the rating system shown below.

| Structure (SMILES) | % Mortality 24 h [1] [%] | % Mortality 48 h [1] [%] | Rating (C. elegans; dose 150 ppm) | further results |
| --- | --- | --- | --- | --- |
| N#Cc1ccc(C=C2OC(=O)C(c3ccc(F)cc3)=C2O)cc1 (mixture of isomers) [R=H, R1=4-F—C6H4**, R2=4-CN—C6H4] | 0 | 0 |  |  |
| O=C1OC(=Cc2ccc(-c3ccc(Cl)cc3)cc2)C(O)=C1c1ccc(F)cc1 (mixture of isomers) | 0 | 0 |  |  |
| CC(=O)Nc1cccc(C2=C(O)/C(=C/c3ccc(-c4cccc(NC(C)=O)c4)cc3)OC2=O)c1 | 0 | 0 |  |  |
| N#Cc1ccc(C2=C(O)C(=Cc3ccc(C(F)(F)F)cc3)OC2=O)cc1 (mixture of isomers) [R=H, R1=4-CN—C6H4**, R2=4-CF3—C6H4] | 100 | 100 |  |  |
| N#Cc1ccc(-c2ccc(C=C3OC(=O)C(c4ccc(C(F)(F)F)cc4)=C3O)cc2)cc1 (mixture of isomers) | 0 | 0 |  |  |
| O=C1OC(=Cc2ccc(F)cc2)C(O)=C1c1cccc(Cl)c1 (mixture of isomers) [R=H, R1=3-Cl—C6H4**, R2=4-F—C6H4] | 0 | 0 |  |  |
| O=C1OC(=Cc2ccc(-c3ccc(Cl)cc3)cc2)C(O)=C1c1ccc(C(F)(F)F)cc1 (mixture of isomers) | 0 | 65 |  |  |
| O=C1OC(=Cc2ccc(C(F)(F)F)cc2)C(O)=C1c1cccc(Cl)c1 (mixture of isomers) [R=H, R1=3-Cl—C6H4**, R2=4-CF3—C6H4] | 60 | 75 |  |  |
| N#Cc1ccc(C=C2OC(=O)C(c3cccc(C(F)(F)F)c3)=C2O)cc1 (mixture of isomers) [R=H, R1=3-CF3—C6H4**, R2=4-CN—C6H4] | 20 | 20 |  |  |
| O=C1OC(=Cc2ccc(Cl)cc2)C(O)=C1c1ccc(-c2ccc(Cl)cc2)cc1 (mixture of isomers) | 0 | 0 |  |  |
| CCOC(=O)N1CCN(c2ccc(/C=C3\OC(=O)C(c4cc(Cl)cc(Cl)c4)=C3O)cc2F)CC1 | 0 | 0 |  |  |
| C=CCOC1=C(c2ccc(Cl)cc2)C(=O)OC1=Cc1ccc(C#N)cc1 (mixture of isomers) | 0 | 0 |  |  |
| N#Cc1ccc(C=C2OC(=O)C(c3ccc(C(F)(F)F)cc3)=C2O)cc1 (mixture of isomers) [R=H, R1=4-CF3—C6H4**, R2=4-CN—C6H4] | 100 | 100 |  |  |
| N#Cc1ccc(C=C2OC(=O)C(c3cccc(C#N)c3)=C2O)cc1 (mixture of isomers) [R=H, R1=3-CN—C6H4**, R2=4-CN—C6H4] | 0 | 0 |  |  |
| O=C1O/C(=C\c2ccc(-c3ccccc3)c(F)c2)C(O)=C1c1cccc(C(F)(F)F)c1 [R=H, R1=3-CF3—C6H4, R2=4-(3-F-biphenyl)] | 0 | 0 |  |  |
| COC1=C(c2cccc(C(F)(F)F)c2)C(=O)O/C1=C\c1ccccc1 [R=CH3, R1=3-CF3—C6H4, R2=C6H5] | 0 | 0 |  |  |
| COc1cc(C=C2OC(=O)C(c3cc(Cl)cc(Cl)c3)=C2O)ccc1-c1cccc(C(F)(F)F)c1 | 0 | 0 |  |  |
| O=C1O/C(=C\c2cccc3ccccc23)C(O)=C1c1cccc(CO)c1 [R=H, R1=3-CH2OH—C6H4, R2=1-naphthyl] | 0 | 0 |  |  |
| O=C1OC(=Cc2ccc(C(F)(F)F)cc2)C(O)=C1c1cccc(C(F)(F)F)c1 (mixture of isomers) [R=H, R1=3-CF3—C6H4**, R2=4-CF3—C6H4] | 100 | 100 |  |  |

| Structure (SMILES) | % Mortality 24 h [1] [%] | % Mortality 48 h [1] [%] | Rating (C. elegans; dose 150 ppm) | further results |
| --- | --- | --- | --- | --- |
| N#Cc1cccc(C2=C(O)C(=Cc3ccc(F)cc3)OC2=O)c1 (mixture of isomers) [R=H, R1=3-CN—C6H4**, R2=4-F—C6H4] | 0 | 0 |  |  |
| O=C1OC(=Cc2ccc(F)cc2)C(O)=C1c1ccc(Cl)cc1 (mixture of isomers) [R=H, R1=4-Cl—C6H4**, R2=4-F—C6H4] | 0 | 0 |  |  |
| COc1ccc(C=C2OC(=O)C(c3ccc(Cl)cc3)=C2O)cc1 [R=H, R1=4-Cl—C6H4, R2=4-OMe—C6H4] | 0 | 0 |  |  |
| N#Cc1ccc(C2=C(O)/C(=C/c3ccc(-c4ccc(C#N)cc4)cc3)OC2=O)cc1 | 0 | 0 |  |  |
| N#Cc1ccc(C=C2OC(=O)C(c3ccc(C#N)cc3)=C2O)cc1 (mixture of isomers) [R=H, R1=4-CN—C6H4**, R2=4-CN—C6H4] | 40 | 100 |  |  |
| N#Cc1cccc(C2=C(O)C(=Cc3ccc(C(F)(F)F)cc3)OC2=O)c1 (mixture of isomers) [R=H, R1=3-CN—C6H4**, R2=4-CF3—C6H4] | 0 | 0 |  |  |
| O=C1O/C(=C\c2ccc(-c3ccccc3)cc2)C(O)=C1c1ccc(-c2ccccc2)cc1 [R=H; R1=4-biphenyl; R2=4-biphenyl] |  |  | 9 |  |
| Cc1ccc(C2=C(O)/C(=C/c3cccc(C(F)(F)F)c3Cl)OC2=O)cc1 [R=H; R1=4-CH3—C6H4; R2=2-Cl-3-CF3—C6H3] |  |  |  | Rating (C. elegans; dose 200 μM): 9 |
| O=C1O/C(=C\c2cccc(C(F)(F)F)c2)C(O)=C1c1ccc2ccccc2c1 [R=H; R1=2-naphthyl; R2=3-CF3—C6H4] |  |  | 9 |  |
| O=C1O/C(=C\c2ccc(OCC3CC3)cc2)C(O)=C1c1ccc(Cl)s1 |  |  |  | Rating (C. elegans; dose 100 ppm): 9 |
| CN(C)c1ccc(/C=C2\OC(=O)C(c3ccc(C(F)(F)F)cc3)=C2O)c2ccccc12 |  |  | 0 |  |
| O=C1O/C(=C\c2ccc(C(F)(F)F)cc2)C(O)=C1c1ccc(Cl)s1 |  |  |  | Rating (C. elegans; dose 100 ppm): 9 |
| O=C1O/C(=C\c2ccc(Cl)cc2)C(O)=C1c1cccs1 [R=H; R1=thiophen-2-yl; R2=4-Cl—C6H4] |  |  |  | Rating (C. elegans; dose 100 ppm): 7 |
| CC(C)(C)c1ccc(-c2ccc(C3=C(O)/C(=C/c4ccc(-c5ccccc5)cc4)OC3=O)cc2)cc1 |  |  | 0 |  |
| COc1cc(/C=C2\OC(=O)C(c3cc(Cl)cc(Cl)c3)=C2O)ccc1-c1ccccc1C |  |  | 9 |  |
| N#Cc1ccc(C2=C(O)C(=Cc3ccc(-c4ccc(Cl)cc4)cc3)OC2=O)cc1 |  |  | 9 |  |
| O=C1OC(=Cc2ccncc2Cl)C(O)=C1c1ccc(OC(F)(F)F)cc1 (mixture of isomers) |  |  |  | Rating (C. elegans; dose 100 ppm): 9 |
| O=C1OC(=Cc2ccc(OC(F)(F)C(F)F)cc2)C(O)=C1c1ccc(OC(F)(F)F)cc1 (mixture of isomers) |  |  |  | Rating (C. elegans; dose 100 ppm): 9 |
| O=C1O/C(=C\c2ccc(N3CCOCC3)c3ccccc23)C(O)=C1c1cc(Cl)cc(Cl)c1 |  |  | 0 |  |

| Structure (SMILES) | % Mortality 24 h [1] [%] | % Mortality 48 h [1] [%] | Rating (C. elegans; dose 150 ppm) | further results |
| --- | --- | --- | --- | --- |
| Cc1cc(C)cc(C2=C(O)/C(=C/c3cc(C(F)(F)F)ccc3Cl)OC2=O)c1 |  |  |  | Rating (C. elegans; dose 200 μM): 0 |
| CCOC(=O)N1CCN(c2ccc(/C=C3\OC(=O)C(c4cccc(Cl)c4)=C3O)cc2F)CC1 |  |  | 7 |  |
| COC1=C(c2cccc(C(F)(F)F)c2)C(=O)O/C1=C\c1cccc(C(F)(F)F)c1 [R=CH3; R1=3-CF3—C6H4; R2=3-CF3—C6H4] |  |  | 0 |  |
| O=Cc1cccc(C2=C(O)/C(=C/c3cccc4ccccc34)OC2=O)c1 [R=H; R1=3-CHO—C6H4; R2=1-naphthyl] |  |  | 0 |  |
| O=C1OC(=Cc2ccc(Oc3ccccc3)nc2)C(O)=C1c1ccc(OC(F)(F)F)cc1 (mixture of isomers) |  |  |  | Rating (C. elegans; dose 100 ppm): 9 |
| O=C1O/C(=C\c2ccc(-c3cc(Cl)cc(Cl)c3)cc2)C(O)=C1c1cc(Cl)cc(Cl)c1 |  |  | 7 |  |
| O=C1OC(=Cc2ccccc2C(F)(F)F)C(O)=C1c1ccc(F)cc1 [R=H; R1=4-F—C6H4; R2=2-CF3—C6H4] |  |  | 0 |  |
| O=C1OC(=Cc2ccc(-c3cccc(CO)c3)cc2)C(O)=C1c1cccc(CO)c1 |  |  | 0 |  |
| O=C1OC(=Cc2cnccc2-c2ccc(Cl)s2)C(O)=C1c1ccc(OC(F)(F)F)cc1 (mixture of isomers) |  |  |  | Rating (C. elegans; dose 100 ppm): 9 |
| O=C1O/C(=C\c2ccc(-c3cccc(C(F)(F)F)c3)cc2)C(O)=C1c1cccc(C(F)(F)F)c1 |  |  | 8 |  |
| O=C1O/C(=C\c2ccccc2)C(O)=C1c1cccc(C(F)(F)F)c1 [R=H; R1=3-CF3—C6H4; R2=C6H5] |  |  | 8 |  |
| CN(C)c1ccc(/C=C2\OC(=O)C(c3ccc(Cl)cc3)=C2O)c2ccccc12 |  |  | 0 |  |
| O=C1O/C(=C\c2cccc(C(F)(F)F)c2)C(O)=C1c1ccc(Cl)cc1 [R=H; R1=4-Cl—C6H4; R2=3-CF3—C6H4] |  |  | 9 |  |
| O=C1OC(=Cc2ccc(C(F)(F)F)cc2)C(O)=C1c1cccs1 [R=H; R1=thiophen-2-yl; R2=4-CF3—C6H4] |  |  |  | Rating (C. elegans; dose 100 ppm): 7 |
| O=C1O/C(=C\c2ccc(-c3ccccc3CO)cc2)C(O)=C1c1ccccc1CO |  |  | 0 |  |
| COC(=O)c1ccc(C2=C(O)/C(=C/c3cccc4ccccc34)OC2=O)cc1 [R=H; R1=4-CO2CH3—C6H4; R2=1-naphthyl] |  |  | 9 |  |
| O=C1OC(=Cc2ccc(-c3cccs3)cc2)C(O)=C1c1ccc(OC(F)(F)F)cc1 (mixture of isomers) |  |  |  | Rating (C. elegans; dose 100 ppm): 9 |
| N#Cc1ccc(-c2ccc(C=C3OC(=O)C(c4ccc(OC(F)(F)F)cc4)=C3O)cc2)cc1 (mixture of isomers) |  |  |  | Rating (C. elegans; dose 100 ppm): 9 |
| COc1ccccc1-c1ccc(/C=C2\OC(=O)C(c3cc(Cl)cc(Cl)c3)=C2O)cc1OC |  |  | 0 |  |
